US10168342B2, “Lipid probes and uses thereof” (THE SCRIPPS RESEARCH INSTITUTE, priority 2015, dated 2019)
Where two headings read alike, the source gives them in different places.

Columns and labels:
[1] = target: AEA-DA lipid probe targets in Neuro2a cells (Mus musculus, UniProt Q80YV4); conditions: competitor 200 μM
[2] = target: T1, lipid-binding proteins in A549 cells (Homo sapiens, UniProt O15173); assay: SILAC MS mapping of UV-dependent lipid probe targets in A549 cells; assay type: cell-based; conditions: AEA-DA probe vs NoUV
T1 construct: endogenous in cells; host or cells: A549 (PMA-stimulated for the PTGS2 experiments)
T1 sequence (O15173 whole entry): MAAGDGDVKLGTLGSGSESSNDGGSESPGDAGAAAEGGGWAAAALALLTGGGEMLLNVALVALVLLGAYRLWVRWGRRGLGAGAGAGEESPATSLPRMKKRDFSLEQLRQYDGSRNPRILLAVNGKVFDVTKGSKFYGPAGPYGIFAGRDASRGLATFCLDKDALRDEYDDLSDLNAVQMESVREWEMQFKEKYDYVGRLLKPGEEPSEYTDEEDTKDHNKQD

[3] = target: T2, lipid-binding proteins in A549 cells (Homo sapiens, UniProt Q53GQ0); assay: as above; assay type: cell-based; conditions: AEA-DA probe vs NoUV
T2 construct: endogenous in cells; host or cells: A549 (PMA-stimulated for the PTGS2 experiments)

[4] = target: T3, lipid-binding proteins in A549 cells (Homo sapiens, UniProt P07602); assay: as above; assay type: cell-based; conditions: AEA-DA probe vs NoUV
T3 construct: endogenous in cells; host or cells: A549 (PMA-stimulated for the PTGS2 experiments)
T3 sequence (P07602 60-524): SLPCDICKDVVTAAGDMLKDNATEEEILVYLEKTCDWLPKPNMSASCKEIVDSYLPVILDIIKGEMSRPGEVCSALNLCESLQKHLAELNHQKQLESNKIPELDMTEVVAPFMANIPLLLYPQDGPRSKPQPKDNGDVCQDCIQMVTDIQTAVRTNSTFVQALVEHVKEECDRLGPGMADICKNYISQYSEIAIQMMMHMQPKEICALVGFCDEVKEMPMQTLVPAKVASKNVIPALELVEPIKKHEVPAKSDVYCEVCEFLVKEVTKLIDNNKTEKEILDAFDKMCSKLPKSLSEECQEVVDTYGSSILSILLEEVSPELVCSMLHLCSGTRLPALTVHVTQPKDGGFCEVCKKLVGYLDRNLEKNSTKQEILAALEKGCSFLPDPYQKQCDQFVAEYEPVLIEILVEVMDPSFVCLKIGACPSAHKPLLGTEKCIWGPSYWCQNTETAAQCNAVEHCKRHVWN

[5] = target: T4, lipid-binding proteins in A549 cells (Homo sapiens, UniProt Q9H4I3); assay: as above; assay type: cell-based; conditions: AEA-DA probe vs NoUV
T4 construct: endogenous in cells; host or cells: A549 (PMA-stimulated for the PTGS2 experiments)
T4 sequence (Q9H4I3 whole entry): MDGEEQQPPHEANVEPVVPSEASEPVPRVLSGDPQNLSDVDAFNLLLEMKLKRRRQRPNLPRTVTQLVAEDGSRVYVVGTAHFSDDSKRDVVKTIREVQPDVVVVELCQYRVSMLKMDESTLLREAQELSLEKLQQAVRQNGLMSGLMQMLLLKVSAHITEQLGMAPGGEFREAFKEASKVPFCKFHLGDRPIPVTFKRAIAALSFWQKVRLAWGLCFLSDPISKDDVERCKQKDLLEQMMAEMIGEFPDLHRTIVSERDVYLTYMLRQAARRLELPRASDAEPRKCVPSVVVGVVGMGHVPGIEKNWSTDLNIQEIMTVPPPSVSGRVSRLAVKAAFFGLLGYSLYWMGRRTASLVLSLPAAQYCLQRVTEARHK

[6] = target: T5, lipid-binding proteins in A549 cells (Homo sapiens, UniProt Q9HAW7); assay: as above; assay type: cell-based; conditions: AEA-DA probe vs NoUV
T5 construct: endogenous in cells; host or cells: A549 (PMA-stimulated for the PTGS2 experiments)
T5 sequence (Q9HAW7 26-530): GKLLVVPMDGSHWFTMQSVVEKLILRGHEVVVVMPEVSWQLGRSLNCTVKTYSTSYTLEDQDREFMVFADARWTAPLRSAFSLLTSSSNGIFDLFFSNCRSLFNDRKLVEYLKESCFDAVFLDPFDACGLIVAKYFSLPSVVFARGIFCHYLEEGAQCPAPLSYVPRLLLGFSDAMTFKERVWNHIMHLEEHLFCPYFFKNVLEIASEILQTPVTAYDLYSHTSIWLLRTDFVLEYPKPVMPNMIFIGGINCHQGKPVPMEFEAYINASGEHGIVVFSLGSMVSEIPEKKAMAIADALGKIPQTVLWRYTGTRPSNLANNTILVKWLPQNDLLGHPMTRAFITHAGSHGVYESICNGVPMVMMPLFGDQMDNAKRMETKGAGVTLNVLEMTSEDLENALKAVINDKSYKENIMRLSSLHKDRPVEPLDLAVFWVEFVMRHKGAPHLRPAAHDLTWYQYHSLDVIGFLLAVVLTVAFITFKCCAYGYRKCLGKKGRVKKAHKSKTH

[7] = target: T6, lipid-binding proteins in A549 cells (Homo sapiens, UniProt P67812); assay: as above; assay type: cell-based; conditions: AEA-DA probe vs NoUV
T6 construct: endogenous in cells; host or cells: A549 (PMA-stimulated for the PTGS2 experiments)
T6 sequence (P67812 whole entry): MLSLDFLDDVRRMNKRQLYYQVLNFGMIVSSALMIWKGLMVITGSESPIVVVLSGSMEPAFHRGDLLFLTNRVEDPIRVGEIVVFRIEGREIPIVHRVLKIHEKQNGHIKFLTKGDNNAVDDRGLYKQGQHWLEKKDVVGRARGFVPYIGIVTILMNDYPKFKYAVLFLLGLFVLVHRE

[8] = target: T7, lipid-binding proteins in A549 cells (Homo sapiens, UniProt O95470); assay: as above; assay type: cell-based; conditions: AEA-DA probe vs NoUV
T7 construct: endogenous in cells; host or cells: A549 (PMA-stimulated for the PTGS2 experiments)
T7 sequence (O95470 whole entry): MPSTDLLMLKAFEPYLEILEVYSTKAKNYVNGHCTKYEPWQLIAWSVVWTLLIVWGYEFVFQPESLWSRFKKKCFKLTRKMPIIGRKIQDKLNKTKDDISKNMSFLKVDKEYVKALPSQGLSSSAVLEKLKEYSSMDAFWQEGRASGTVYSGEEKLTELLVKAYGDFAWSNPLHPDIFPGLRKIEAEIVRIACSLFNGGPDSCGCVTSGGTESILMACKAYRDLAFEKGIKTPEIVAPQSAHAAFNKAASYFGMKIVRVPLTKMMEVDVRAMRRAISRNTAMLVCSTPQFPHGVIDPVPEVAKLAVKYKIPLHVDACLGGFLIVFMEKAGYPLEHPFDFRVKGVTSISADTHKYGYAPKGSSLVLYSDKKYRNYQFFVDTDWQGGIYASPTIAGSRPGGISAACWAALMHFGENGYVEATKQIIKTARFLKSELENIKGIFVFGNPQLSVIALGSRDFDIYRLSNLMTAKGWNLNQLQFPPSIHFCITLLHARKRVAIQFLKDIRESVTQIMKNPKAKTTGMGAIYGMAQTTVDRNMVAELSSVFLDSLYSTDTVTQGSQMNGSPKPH

[9] = target: T8, lipid-binding proteins in A549 cells (Homo sapiens, UniProt Q86XL3); assay: as above; assay type: cell-based; conditions: AEA-DA probe vs NoUV
T8 construct: endogenous in cells; host or cells: A549 (PMA-stimulated for the PTGS2 experiments)
T8 sequence (Q86XL3 whole entry): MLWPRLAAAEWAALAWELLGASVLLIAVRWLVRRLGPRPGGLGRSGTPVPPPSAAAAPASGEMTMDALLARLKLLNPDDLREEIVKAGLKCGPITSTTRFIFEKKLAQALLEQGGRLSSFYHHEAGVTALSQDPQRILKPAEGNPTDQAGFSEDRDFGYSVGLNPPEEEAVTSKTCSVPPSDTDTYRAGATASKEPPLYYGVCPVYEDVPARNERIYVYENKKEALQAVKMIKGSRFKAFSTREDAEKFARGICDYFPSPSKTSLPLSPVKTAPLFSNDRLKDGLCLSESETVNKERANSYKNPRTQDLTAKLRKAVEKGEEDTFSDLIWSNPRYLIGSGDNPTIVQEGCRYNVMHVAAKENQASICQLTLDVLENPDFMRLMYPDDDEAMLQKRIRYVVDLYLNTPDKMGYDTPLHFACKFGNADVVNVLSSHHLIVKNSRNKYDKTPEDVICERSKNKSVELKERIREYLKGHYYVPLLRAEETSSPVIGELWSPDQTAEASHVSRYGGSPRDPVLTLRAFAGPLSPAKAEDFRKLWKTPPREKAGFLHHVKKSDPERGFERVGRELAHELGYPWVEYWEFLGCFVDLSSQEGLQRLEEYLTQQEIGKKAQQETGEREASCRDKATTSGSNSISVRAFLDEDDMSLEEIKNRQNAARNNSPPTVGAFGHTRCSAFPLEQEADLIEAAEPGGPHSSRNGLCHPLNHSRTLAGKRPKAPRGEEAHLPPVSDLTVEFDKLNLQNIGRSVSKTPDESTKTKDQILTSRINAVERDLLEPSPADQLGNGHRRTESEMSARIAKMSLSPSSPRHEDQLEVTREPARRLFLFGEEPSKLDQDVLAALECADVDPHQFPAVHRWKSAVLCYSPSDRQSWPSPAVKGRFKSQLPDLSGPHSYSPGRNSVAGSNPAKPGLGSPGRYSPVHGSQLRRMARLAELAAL

[10] = target: T9, lipid-binding proteins in A549 cells (Homo sapiens, UniProt P45880); assay: as above; assay type: cell-based; conditions: AEA-DA probe vs NoUV
T9 construct: endogenous in cells; host or cells: A549 (PMA-stimulated for the PTGS2 experiments)

[11] = target: T10, lipid-binding proteins in A549 cells (Homo sapiens, UniProt Q14534); assay: as above; assay type: cell-based; conditions: AEA-DA probe vs NoUV
T10 construct: endogenous in cells; host or cells: A549 (PMA-stimulated for the PTGS2 experiments)
T10 sequence (Q14534 whole entry): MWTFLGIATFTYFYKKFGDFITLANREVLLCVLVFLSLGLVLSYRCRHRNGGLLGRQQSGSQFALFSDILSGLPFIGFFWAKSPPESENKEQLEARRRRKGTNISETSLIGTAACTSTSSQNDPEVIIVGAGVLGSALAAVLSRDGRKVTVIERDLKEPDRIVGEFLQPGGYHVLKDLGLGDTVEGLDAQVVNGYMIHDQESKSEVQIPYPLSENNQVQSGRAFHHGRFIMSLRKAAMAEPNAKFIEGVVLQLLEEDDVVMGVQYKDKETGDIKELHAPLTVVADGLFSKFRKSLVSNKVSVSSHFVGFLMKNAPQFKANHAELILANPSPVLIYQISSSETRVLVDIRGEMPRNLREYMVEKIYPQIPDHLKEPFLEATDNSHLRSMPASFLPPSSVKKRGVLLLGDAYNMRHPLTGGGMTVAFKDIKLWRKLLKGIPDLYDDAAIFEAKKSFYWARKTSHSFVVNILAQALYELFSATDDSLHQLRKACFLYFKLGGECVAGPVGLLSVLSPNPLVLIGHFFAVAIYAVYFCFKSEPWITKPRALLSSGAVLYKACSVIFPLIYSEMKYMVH

[12] = target: T11, lipid-binding proteins in A549 cells (Homo sapiens, UniProt P21796); assay: as above; assay type: cell-based; conditions: AEA-DA probe vs NoUV
T11 construct: endogenous in cells; host or cells: A549 (PMA-stimulated for the PTGS2 experiments)
T11 sequence (P21796 whole entry): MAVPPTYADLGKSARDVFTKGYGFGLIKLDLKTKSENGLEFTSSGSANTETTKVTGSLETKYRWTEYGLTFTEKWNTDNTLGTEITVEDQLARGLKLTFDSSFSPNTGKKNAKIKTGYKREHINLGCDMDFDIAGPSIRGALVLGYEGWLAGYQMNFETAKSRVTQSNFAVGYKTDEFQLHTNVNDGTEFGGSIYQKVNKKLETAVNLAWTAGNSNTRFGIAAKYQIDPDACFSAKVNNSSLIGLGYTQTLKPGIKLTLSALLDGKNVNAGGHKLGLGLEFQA

[13] = target: T12, lipid-binding proteins in A549 cells (Homo sapiens, UniProt Q9NS69); assay: as above; assay type: cell-based; conditions: AEA-DA probe vs NoUV
T12 construct: endogenous in cells; host or cells: A549 (PMA-stimulated for the PTGS2 experiments)
T12 sequence (Q9NS69 whole entry): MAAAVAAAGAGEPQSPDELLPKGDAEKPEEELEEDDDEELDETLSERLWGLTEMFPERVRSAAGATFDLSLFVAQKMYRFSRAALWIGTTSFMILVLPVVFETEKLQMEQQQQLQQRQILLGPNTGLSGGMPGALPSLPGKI

[14] = target: T13, lipid-binding proteins in A549 cells (Homo sapiens, UniProt P30519); assay: as above; assay type: cell-based; conditions: AEA-DA probe vs NoUV
T13 construct: endogenous in cells; host or cells: A549 (PMA-stimulated for the PTGS2 experiments)
T13 sequence (P30519 whole entry): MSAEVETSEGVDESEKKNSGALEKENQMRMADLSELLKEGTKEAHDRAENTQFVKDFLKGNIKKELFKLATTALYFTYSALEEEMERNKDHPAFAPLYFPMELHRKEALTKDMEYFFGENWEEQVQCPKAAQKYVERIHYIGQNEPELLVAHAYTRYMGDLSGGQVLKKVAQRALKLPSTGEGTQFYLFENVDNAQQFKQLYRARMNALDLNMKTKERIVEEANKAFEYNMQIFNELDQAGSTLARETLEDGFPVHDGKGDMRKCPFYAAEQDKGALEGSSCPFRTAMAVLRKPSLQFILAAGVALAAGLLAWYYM

[15] = target: AEA-DA lipid probe targets in Neuro2a cells (Mus musculus, UniProt Q9QXS1); conditions: competitor 25 μM
[16] = target: AEA-DA lipid probe targets in A549 cells (Homo sapiens, UniProt Q14534); assay: In situ competitive SILAC profiling with AEA-DA probe in A549 cells; conditions: competitor 25 μM
Chain of AEA-DA lipid probe targets in A549 cells (Homo sapiens, UniProt Q14534) (Q14534 whole entry): as the sequence (Q14534 whole entry) above

[17] = target: AEA-DA lipid probe targets in A549 cells (Homo sapiens, UniProt Q53GQ0); assay: as above; conditions: competitor 25 μM
[18] = target: AEA-DA lipid probe targets in A549 cells (Homo sapiens, UniProt P30519); assay: as above; conditions: competitor 25 μM
Chain of AEA-DA lipid probe targets in A549 cells (Homo sapiens, UniProt P30519) (P30519 whole entry): as the sequence (P30519 whole entry) above

[19] = target: AEA-DA lipid probe targets in A549 cells (Homo sapiens, UniProt O95470); assay: as above; conditions: competitor 25 μM
Chain of AEA-DA lipid probe targets in A549 cells (Homo sapiens, UniProt O95470) (O95470 whole entry): as the sequence (O95470 whole entry) above

[20] = system: AEA-DA lipid probe targets in A549 cells; assay: as above; conditions: competitor 25 μM
[21] = target: AEA-DA lipid probe targets in A549 cells (Homo sapiens, UniProt Q86XL3); assay: as above; conditions: competitor 25 μM
Chain of AEA-DA lipid probe targets in A549 cells (Homo sapiens, UniProt Q86XL3) (Q86XL3 whole entry): as the sequence (Q86XL3 whole entry) above

[22] = target: T14, AEA-DA lipid probe targets in Neuro2a cells (Mus musculus, UniProt P45878); conditions: protein Fkbp2, Neuro2a cells
T14 sequence (P45878 23-140): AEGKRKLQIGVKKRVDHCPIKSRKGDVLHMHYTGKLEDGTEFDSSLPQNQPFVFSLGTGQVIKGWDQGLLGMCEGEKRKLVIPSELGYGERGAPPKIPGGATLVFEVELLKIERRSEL

[23] = target: AEA-DA lipid probe targets in Neuro2a cells (Mus musculus, UniProt P21619); conditions: protein Lmnb2; Neuro2a cells; competitor 50 μM
[24] = target: T15, recombinant TMEM97 (Homo sapiens, UniProt Q5BJF2); assay: In situ gel-based competition of arachidonoyl probe labeling of recombinant TMEM97 in HEK293T cells; assay type: cell-based; conditions: TMEM97-transfected HEK293T cells, probe 5 μM, competitor 25 μM
T15 construct: Full-length cDNAs encoding for the each protein of interest were subcloned into pcDNA3.1 myc-His A; expressed in transfected cells; host or cells: HEK293T
T15 sequence (Q5BJF2 whole entry, species assumed): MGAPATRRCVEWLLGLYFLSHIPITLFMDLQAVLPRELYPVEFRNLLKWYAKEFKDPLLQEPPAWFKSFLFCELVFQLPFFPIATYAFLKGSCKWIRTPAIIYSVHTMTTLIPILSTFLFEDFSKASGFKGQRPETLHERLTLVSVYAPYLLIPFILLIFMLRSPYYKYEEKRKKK
Protocol: Proteomes were diluted to 1.0 mg/mL (total protein concentration) and 50 μL of each proteome was transferred to separate wells in a 96-well plate.
Full-length cDNAs encoding for the each protein of interest were subcloned into pcDNA3.1 myc-His A (Invitrogen) or used directly for transfections if available in a eukaryotic expression vector. HEK293T cells were grown to ˜70% confluence under standard growth conditions before adding the appropriate cDNA [control cells (“mock”) received an equal amount of empty pcDNA3.1 myc-His A vector] and FuGENE 6 or X-tremeGENE HP (Roche) transfection reagent according to the manufacturer's instructions. Cells were incubated for 36-48 hours before labeling in situ or harvesting for in vitro experiments.

With CCCCC/C=C\C/C=C\C/C=C\C/C=C\CCCC(=O)NCCO [AEA, anandamide, reference compound] the “SILAC ratio Pank4” value [1] was 1.6.
In the case of C#CCCCC1(CC/C=C\C/C=C\C/C=C\CCCC(=O)NCCO)N=N1 [AEA-DA, (5Z,8Z,11Z)-N-(2-hydroxyethyl)-14-(3-(pent-4-yn-1-yl)-3H-diazirin-3-yl)tetradeca-5,8,11-trienamide], the “SILAC ratio, PGRMC2 (Q80UU9)” value [2] is reported as 20.0, the “SILAC ratio, HSD17B12 (Q53GQ0)” value [3] is reported as 20.0 and the “SILAC ratio, PSAP (P07602)” value [4] is reported as 20.0. For the same compound, the “SILAC ratio, TRABD (Q99JY4)” value [5] was 20.0, the “SILAC ratio, UGT1A7 (Q9HAW7)” value [6] was 20.0 and the “SILAC ratio, SEC11A (P67812)” value [7] was 14.0. For the same compound, the “SILAC ratio, SGPL1 (O95470)” value [8] was 20.0, the “SILAC ratio, ANKLE2 (Q86XL3)” value [9] was 20.0 and the “SILAC ratio, VDAC2 (P45880)” value [10] was 20.0. The “SILAC ratio, SQLE (Q14534)” value [11] was 20.0, the “SILAC ratio, VDAC1 (P21796)” value [12] was 20.0 and the “SILAC ratio, TOMM22 (Q9CPQ3)” value [13] was 20.0. For the same compound, the “SILAC ratio, HMOX2 (P30519)” value [14] was 20.0.
In the case of O=C(/C=C/c1cccnc1)NCCCCC1CCN(C(=O)c2ccccc2)CC1 [FK-866, reference compound], the “SILAC ratio, Plec” value [15] is reported as 2.1, the “SILAC ratio, SQLE (Q14534)” value [16] is reported as 0.7 and the “SILAC ratio, HSD17B12 (Q53GQ0)” value [17] is reported as 0.8. The “SILAC ratio, HMOX2 (P30519)” value [18] was 0.7, the “SILAC ratio, SGPL1 (O95470)” value [19] was 0.8 and the “SILAC ratio, PGRMC2 (Q80UU9)” value [20] was 0.7. The “SILAC ratio, PSAP (P07602)” value [20] was 0.7, the “SILAC ratio, TOMM22 (Q9CPQ3)” value [20] was 0.6 and the “SILAC ratio, UGT1A7 (Q9HAW7)” value [20] was 1.5. For the same compound, the “SILAC ratio, ANKLE2 (Q86XL3)” value [21] was 0.6.
CN1CCN(C(=O)c2[nH]c3ccc([N+](=O)[O-])cc3c2-c2ccccc2)CC1 [MJN228, (4-Methylpiperazin-1-yl)(5-nitro-3-phenyl-1H-indol-2-yl)methanone] was tested, and the “SILAC ratio (AEA-DA competition)” value ([22]; competitor 10 μM) was 1.1, the “SILAC ratio (AEA-DA competition)” value ([22]; competitor 25 μM) was 1.6 and the “SILAC ratio (AEA-DA competition)” value ([22]; competitor 100 μM) was 1.1. For the same compound, the “SILAC ratio (AEA-DA competition)” value [23] was 1.9.
In the case of C=CCN(C)CCCCCCOc1ccc(C(=O)c2ccc(Br)cc2)c(F)c1 [Ro 48-8071, reference compound], the “competition of arachidonoyl probe labeling of recombinant TMEM97” value [24] is reported as “competition was observed”.
